This is an account of results in patent publication US12226386B2, “Compositions and methods for treating biofilms” (The Regents of the University of California, priority 2018, dated 2025).

Read-outs that look alike come from different tables or passages of the source.

For assay [1], the system named is S. aureus (MRSA) biofilms. The experiment in a line: in vitro sustained inhibition biofilm assay, bacterial. The assay is classed as cell-based, Staphylococcus aureus. The settings on record: for activation at 1 %: Staphylococcus aureus, MRSA, 24 h, read-out: Promote B Biofilm. Here is the method:
(§1) In vitro biofilm formation was tested using two assays, sustained inhibition and disruption. Both assays assess biofilm formed on polystyrene plates. The first, tests the effects of amino acid solution on a developing biofilm, while the latter tests the effects of the solution on a pre-formed mature biofilm, both compared to media without supplemented amino acids.
(§2) Other amino acids in the blood of animals could combat bacterial and fungal biofilm and therefore may be useful in treating these bacterial and fungal infections that would lie on the external surfaces of infected animals such as humans and could also be used to combat these pathogens on instruments and surfaces that need to be treated. Two types of biofilm assays were performed: a sustained inhibition assay and a disruption assay. The sustained inhibition assay assessed the compound's ability to prevent biofilm development throughout all stages of biofilm formation, while the disruption assay assessed the compound's ability to break up an existing mature biofilm.
(§3) For fungal biofilm assays, all solutions were prepared in RPMI 1640 medium. All bacterial biofilm solutions were prepared in Tryptic Soy Broth (TSB), supplemented with 1% glucose (henceforth referred to as TSB-G). All subsequent procedures were performed in a manner that maintained sterility. A solution of each amino acid to be tested was prepared in weight to volume concentrations ranging from 0.1-5.0%. Amino acids were also tested in combinations. Compound solutions were homogenized with gentle agitation in the dark (4° C., 24 hours) before use.
(§4) Bacterial strains were streaked on Blood Agar plates (5% sheep blood in Tryptic Soy Agar) and incubated at 37° C. for 24 hours. A single colony from each strain to be tested was inoculated in a TSB broth and grown for 12 hours, at 37° C. shaking at 225 rpm. For the bacterial biofilm inhibition assays, 1 μL of saturated overnight cell culture was added to either 80 μL of TSB-G, or TSB-G supplemented with the amino acid compound solution to be tested, in a 384-well plate. The cells were allowed to adhere to the plate for 60 minutes at 37° C. without shaking. The media was carefully aspirated and 80 μL of TSB-G, or TSB-G supplemented with the amino acid compound solution was added to the plate. The plate was further incubated for 24 hours at 37° C. without shaking. Media was carefully aspirated and the biofilm was measured by optical density at 600 nm. Eight or twelve replicates were performed for each tested condition and the reported values are normalized to the control (TSB-G media only). For the bacterial biofilm disruption assays, 80 μL of TSB-G was added to the plate, along with 1 μL of overnight cell culture. The cells were allowed to adhere to the plate for 60 minutes at 37° C. with no shaking. The media was carefully aspirated and 80 μL of TSB-G was added to the plate. The plate was further incubated for 24 hours at 37° C. with no shaking. Media was carefully aspirated from the mature biofilm and 80 μL of TSB-G, or TSB-G supplemented with the amino acid to be tested, was gently added to the plate. The plate was further incubated for 24 hours at 37° C. without shaking. Media was aspirated and the biofilm was measured by optical density at 600 nm. Twelve replicates were performed for each tested condition and the reported values are normalized to the control (TSB-G media only).
For inhibition assay, 1 μl of overnight cell culture was added to either 80 μl of TSB-G, or TSB-G supplemented with the amino acid to be tested, in a 384-well plate. The cells were allowed to adhere to the plate for 60 minutes at 37° C. with no shaking. The media was carefully aspirated and 80 μl of TSB-G, or TSB-G supplemented with amino acid was added to the plate. The plate was further incubated for 24 hours at 37° C. with no shaking. Media was carefully aspirated and the biofilm was measured by optical density at 600 nm. […]

The subject of assay [2] is bacterial biofilms (MRSA). The experiment in a line: biofilm assays (sustained inhibition and/or disruption), bacterial. The format is cell-based, Staphylococcus aureus. Particulars: for effect on bacterial biofilm growth / anti-biofilm properties against bacterial biofilms: in at least one of the two biofilm assays; for effect on MRSA biofilms in inhibition and disruption assays: Tables 4 and 5; for anti-biofilm properties against bacterial biofilms: administered individually at about 0.1 to about 5.0% weight to volume. Here is the method:
as §2, §3, §4

Assay [3] concerns S. aureus (MRSA) biofilms. The experiment in a line: in vitro biofilm disruption assay, bacterial. The assay is classed as cell-based. Particulars: Staphylococcus aureus, 24 h. Here is the method:
as §1, §2, §3, §4
For disruption assay, 80 μl of TSB-G was added to the plate, along with 1 μl of overnight cell culture. The cells were allowed to adhere to the plate for 60 minutes at 37° C. with no shaking. The media was carefully aspirated and 80 μl of TSB-G was added to the plate. The plate was further incubated for 24 hours at 37° C. with no shaking. Media was carefully aspirated from the mature biofilm and 80 μl of TSB-G, or TSB-G supplemented with the amino acid to be tested, was added drop wise to the plate. The plate was further incubated for 24 hours at 37° C. with no shaking. […]

The mark [4] stands for this setting: sustained inhibition, S. aureus, 1% amino acid, p<0.001.
The mark [5] stands for this setting: disruption, S. aureus, 1% amino acid, p<0.001, read-out: Reduce B Biofilm.
Setting [6] is: disruption, S. aureus, 1% amino acid, p<0.001, read-out: Promote B Biofilm.

Turning to `CSCC[C@H](N)C(=O)O` [Methionine, L-methionine], the activation at 1 % in assay [1] (setting [4]) lay in the range of 10 to 30%. The “effect on bacterial biofilm growth” value in assay [2] is “support (improve) bacterial biofilm growth”.
In the case of `N=C(N)NCCC[C@H](N)C(=O)O` [Arginine, L-arginine], the activation at 1 % in assay [1] and in assay [3] (read-out: Promote B Biofilm) was 10 to 30% each time. In addition, the “effect on bacterial biofilm growth” value in assay [2] is “support (improve) bacterial biofilm growth”.
On to `NCCCC[C@H](N)C(=O)O` [Lysine, L-lysine], for which the activation at 1 % in assay [1] and in assay [3] (read-out: Promote B Biofilm) was 10 to 30% in each case. The “effect on bacterial biofilm growth” value in assay [2] is given as “support (improve) bacterial biofilm growth”.
As to `NCCOP(=O)(O)O` [Phosphoethanolamine, O-phosphoethanolamine], the “Reduce B Biofilm” value in assay [1] (setting [4]) is “● (a single dot [i.e. ●] signifies minor effect (from about 10 to about 30% change))”. Moreover, the inhibition at 1 % in assay [3] (setting [5]) is 10 to 30%. Further, in assay [2], the “effect on MRSA biofilms in inhibition and disruption assays” value is “both inhibited and disrupted”; the “anti-biofilm properties against bacterial biofilms” value (from here on “anti-biofilm properties”) is given as “reduction by less than twofold”.
Consider `O=C(O)[C@@H]1C[C@@H](O)CN1` [Hydroxyproline, Trans-4-hydroxy-L-proline], for which the “Reduce B Biofilm” value in assay [1] (setting [4]) is “● (a single dot [i.e. ●] signifies minor effect (from about 10 to about 30% change))”. Further, the inhibition at 1 % in assay [3] (read-out: Reduce B Biofilm) is 10 to 30%. In addition, in assay [2], the “effect on MRSA biofilms in inhibition and disruption assays” value was “both inhibited and disrupted”; the “anti-biofilm properties” value is recorded as “reduction by less than twofold”.
Turning to `N[C@@H](CO)C(=O)O` [Serine, L-serine], the activation at 1 % in assay [1] (setting [4]) and in assay [3] (setting [6]) was 10 to 30% each time. In addition, the “effect on bacterial biofilm growth” value in assay [2] is “support (improve) bacterial biofilm growth”.
With `NCCC[C@H](N)C(=O)O` [Ornithine, L-omithine], the activation at 1 % in assay [1] (setting [4]) and in assay [3] (setting [6]) was 10 to 30% each time. In assay [2], the “effect on bacterial biofilm growth” value is recorded as “support (improve) bacterial biofilm growth”.
For `C[C@@H](O)[C@H](N)C(=O)O` [Threonine, L-threonine], in assay [1] (setting [4]), the activation at 1 % fell in the range of 10 to 30%. In addition, the “effect on bacterial biofilm growth” value in assay [2] is listed as “support (improve) bacterial biofilm growth”.
In the case of `NCC(=O)O` [Glycine, L-glycine], the activation at 1 % in assay [1] (setting [4]) and in assay [3] (setting [6]) was 10 to 30% in each case. The “effect on bacterial biofilm growth” value in assay [2] was “support (improve) bacterial biofilm growth”.
In the case of `C[C@H](N)C(=O)O` [Alanine, L-alanine], the activation at 1 % in assay [3] (setting [6]) fell in the range of 10 to 30%. Moreover, the “effect on bacterial biofilm growth” value in assay [2] is “support (improve) bacterial biofilm growth”.
In the case of `NC(CCCC(=O)O)C(=O)O` (stereo not shown) [2 Aminoadipic Acid, 2-aminoadipic acid], the “Reduce B Biofilm” value in assay [1] (setting [4]) was “● (a single dot [i.e. ●] signifies minor effect (from about 10 to about 30% change))”. For the same compound, in assay [3] (setting [5]), the inhibition at 1 % lay in the range of 10 to 30%. Also, in assay [2], the “effect on MRSA biofilms in inhibition and disruption assays” value was “both inhibited and disrupted”; the “anti-biofilm properties” value was “reduction by less than twofold”.
Regarding `NCCC(=O)O` [Beta-Alanine, Beta-alanine], the “Reduce B Biofilm” value in assay [1] (setting [4]) was “● (a single dot [i.e. ●] signifies minor effect (from about 10 to about 30% change))”. The “anti-biofilm properties” value in assay [2] is reported as “reduction by less than twofold”.
Turning to `N[C@@H](CCSC[C@H](N)C(=O)O)C(=O)O` [Cystathionine, L-cystathionine], the inhibition at 0.2 % in assay [3] (disruption, S. aureus, 0.2% amino acid, p<0.001, read-out: Reduce B Biofilm) is 10 to 30%.
As for `NCCS(=O)(=O)O` [Taurine, L-taurine], the activation at 1 % in assay [1] (setting [4]) and in assay [3] (setting [6]) was 10 to 30% in each case. Moreover, in assay [2], the “effect on bacterial biofilm growth” value is on record as “support (improve) bacterial biofilm growth”.
On to `CC(C)C[C@H](N)C(=O)O` [Leucine, L-leucine], for which the activation at 1 % in assay [1] (setting [4]) and in assay [3] (setting [6]) was 10 to 30% in each case. The “effect on bacterial biofilm growth” value in assay [2] is “support (improve) bacterial biofilm growth”.
Consider `NC(=O)NCCC[C@H](N)C(=O)O` [Citrulline, L-citrulline], for which the activation at 1 % in assay [1] and in assay [3] (read-out: Promote B Biofilm) was 10 to 30% throughout. In assay [2], the “effect on bacterial biofilm growth” value is on record as “support (improve) bacterial biofilm growth”.
As to `N[C@@H](Cc1ccccc1)C(=O)O` [Phenylalanine, L-phenylalanine], the activation at 1 % in assay [1] (setting [4]) and in assay [3] (setting [6]) was 10 to 30% each time. In addition, the “effect on bacterial biofilm growth” value in assay [2] is on record as “support (improve) bacterial biofilm growth”.
On to `CC[C@H](C)[C@H](N)C(=O)O` [Isoleucine, L-isoleucine], for which, in assay [3] (setting [6]), the activation at 1 % was in the range of 10 to 30%. In assay [2], the “effect on bacterial biofilm growth” value was “support (improve) bacterial biofilm growth”.
Turning to `NC(=O)C[C@H](N)C(=O)O` [Asparagine, L-asparagine], the activation at 1 % in assay [1] (setting [4]) was in the range of 10 to 30%. For the same compound, in assay [2], the “effect on bacterial biofilm growth” value is listed as “support (improve) bacterial biofilm growth”.
